{
  "source": "patent US20190091174A1",
  "about": "“METHOD OF REDUCING SEIZURE TYPE E[…] A DRAVET PATIENT” (ZOGENIX INTERNATIONAL LIMITED, priority 2017, published 2019)",
  "key": {"[1]": {"tested_on": "patients with Dravet syndrome", "experiment": "Study 1 (ZX008-1501/1502): Phase 3, double-blind, placebo-controlled, liquid fenfluramine formulation added to current antiepileptic drugs", "format": "in vivo, human", "details": "end of the T+M Period", "method": "The first 119 subjects to be randomized in both identical studies combined were analyzed and reported as Study 1 (FIG. 1), covered by a Statistical Analysis Plan (SAP).\nPrimary and key secondary endpoints in the Study 1 SAP were pre-determined. All patients were treated twice per day over a period of 14 weeks using an oral syringe to administer the formulation. The treatment period included a two-week titration period and a 12-week maintenance period.\nThe initial results of Study 1 are outlined below. The randomized, double blind, placebo controlled, Phase 3 study enrolled 119 patients across sites in the United States, Canada, Europe and Australia. The median age of patients was 8 years, the mean age of patients was 9 years (range, 2-18 years) (FIG. 2).\nPatients were titrated to their target dose over two weeks, and then remained at that fixed dose for 12 weeks. The mean baseline convulsive seizure frequency across the study groups was approximately 40 seizures per month. 110 (92%) patients completed the study (85% 0.8 mg/kg/day; 100% 0.2 mg/kg/day; 93% placebo). […]\nThe mean number of convulsive seizure free days, defined as a day for which diary data are available and no convulsive seizures have been reported, was determined for each treatment group during the Baseline and T+M Periods. […]"}, "[2]": {"tested_on": "patients with Dravet syndrome", "details": "long-term fenfluramine treatment; cited from earlier work"}},
  "data": [
    {"smiles": "CCNC(C)Cc1cccc(C(F)(F)F)c1", "note": "(racemic) [Fenfluramine, 3-trifluoromethyl-N-ethylamphetamine]", "values": [
      {"measurement": "reduction from Baseline in non-convulsive seizures (all types), % [SD]", "setting": "[1]; 0.2 mg/kg/day", "value": "9.7% (140.46)"},
      {"measurement": "reduction from Baseline in non-convulsive seizures (all types), % [SD]", "setting": "[1]; 0.8 mg/kg/day", "value": "59.1% (40.14)"},
      {"measurement": "heart valve defects monitored by echocardiography", "setting": "[2]", "value": "No clinically relevant defects"},
      {"measurement": "incidence of all types of seizures", "setting": "[2]", "value": "effectively reduced the incidence of all types of seizures"},
      {"measurement": "seizure-free condition, share of test subjects", "setting": "[2]", "value": 66.6, "unit": "%"}
    ]}
  ]
}
